Reference: publication PMC4116524, “A virtual screen identified C96 as a novel inhibitor of phosphatidylinositol 3-kinase that displays potent preclinical activity against multiple myeloma in vitro and in vivo” (Oncotarget, 2014)

Columns and labels:
[1] = system: MM cell; parameters: method as in PMID 24013662; conditions: cited from earlier work
[2] = system: MM cell; parameters: method as in PMID 20505158; conditions: cited from earlier work
[3] = system: PI3Kγ and δ; parameters: method as in PMID 20505158; conditions: read-out: IC50s in inhibiting PI3K activity; cited from earlier work
[4] = system: AKT phosphorylation in LP1 and JJN3 cells; assay: IGF-1-stimulated AKT phosphorylation, immunoblotting (Figure 3A); type: cell-based; conditions: 100 μM, 2 hrs, IGF-1 15 min
Method: To elucidate this specificity, we first evaluated its effects on IGF-1R because IGF-1R as a receptor tyrosine kinase activates PI3K in the presence of IGF-1. To exclude the potential effects of C96 on IGF-1 signaling, LP1 and JJN3 cells were starved overnight followed by C96 or S14161 treatment for 2 hrs, and IGF-1 stimulation for 15 min. As expected, IGF-1 triggered AKT phosphorylation but it was suppressed by both C96 and the proven PI3K inhibitor S14161 without affecting total AKT expression (Figure 3A). […] Next, we evaluated other kinases including non-receptor kinase c-Src and a PI3K parallel kinase ERK which transduces external cellular signals. Both LP1 and JJN3 cells were treated with C96 at increasing concentrations that inhibited AKT and mTOR activation (Figure 2C).
Figure 3 C96 inhibits AKT but not IGF-1R, ERK or c-Src kinase activation (A) LP1 and JJN3 cells were starved overnight, then treated with 100 (μM of C96 or S14161 for 2 hrs, followed by IGF-1 (100 ng/mL) for 15 min. After incubation, cells were harvested and the expression of p-AKT, p-IGF-1R, total AKT (T-AKT), and IGF-1R proteins were detected by immunoblotting. (B) LP1 and JJN3 were treated with C96 at indicated concentrations for 24 hrs followed by immunoblotting assay for the expression of p-Src, c-Src, p-ERK, and ERK. GAPDH was used as a loading control. […]

COc1c(OCCCN2CCOCC2)ccc2c1N=C(NC(=O)c1cnc(N)nc1)N1CCN=C21 [BAY80-6946]
concentration required to inhibit MM cell proliferation [1]: more than 1000 nM

CC[C@H](Nc1ncnc2[nH]cnc12)c1nc2cccc(F)c2c(=O)n1-c1ccccc1 [CAL-101]
concentration needed to induce MM cell death [2]: more than 10 μM | IC50 [3]: ~2.5 nM

CCOc1cccc2c1OC(c1ccc(F)cc1)C([N+](=O)[O-])=C2 (stereo not shown) [S14161, reference compound]
AKT phosphorylation triggered by IGF-1 [4]: suppressed
